Data from patent US7893266B2, “Detection of cancer cells in vitro using sigma-2 receptor ligands as radiotracers” (Washington University, priority 2003, dated 2011).

Test system: EMT-6 mammary tumors
Test: Biodistribution in EMT-6 BALB/C mice
Assay type: in vivo
Procedure: As used herein, the term “tumor:background ratio” (i.e., tumor:fat ratio, tumor:muscle ratio, tumor:lung ratio, tumor:blood ratio) refers to the % injected dose/g tissue of the radiotracer in the tumor divided by the % injected dose/g […] in the background tissue (i.e., fat, muscle, lung, blood).
B. Biodistribution Studies of ^11C analogs in Tumor-Bearing Mice. Biodistribution studies were conducted in mature Balb/c mice that were implanted with EMT-6 mammary tumors identified herein as EMT-6 BALB/C mice to create laboratory tumor-bearing mice. The mice were implanted in the scapular region seven days prior to the study. Animals were injected with 100-150 μCi of the ^11C-labeled radiotracer and the animals were sacrificed at 5, 30, and 60 min post-i.v. injection of the radiotracer.
A series of biodistribution studies in tumor-bearing mice were also conducted with [^76Br]8, [^76Br]6, [^125I]8i, and [^125I]6i.

## COc1cc2c(cc1OC)CN(CCCCNC(=O)c1cc(Br)cc(OC)c1O[11CH3])CC2 [[^11C]6]
5 min
  ratio Tumor:blood: 0.40 ± 0.01
  ratio Tumor:fat: 1.82 ± 0.45
  ratio Tumor:heart: 0.80 ± 0.07
  ratio Tumor:lung: 0.47 ± 0.04
  ratio Tumor:muscle: 1.46 ± 0.19
  % ID per gram blood: 7.12 ± 1.01 % ID per gram
  % ID per gram brain: 0.33 ± 0.09 % ID per gram
  % ID per gram fat: 1.66 ± 0.41 % ID per gram
  % ID per gram heart: 3.54 ± 0.31 % ID per gram
  % ID per gram kidney: 19.48 ± 1.46 % ID per gram
  % ID per gram liver: 25.02 ± 3.70 % ID per gram
  % ID per gram lung: 6.01 ± 0.77 % ID per gram
  % ID per gram muscle: 1.94 ± 0.13 % ID per gram
  % ID per gram tumor: 2.82 ± 0.36 % ID per gram
30 min
  ratio Tumor:blood: 0.94 ± 0.05
  ratio Tumor:fat: 2.05 ± 0.57
  ratio Tumor:heart: 1.36 ± 0.12
  ratio Tumor:lung: 0.69 ± 0.08
  ratio Tumor:muscle: 0.59 ± 0.05
  % ID per gram blood: 0.99 ± 0.15 % ID per gram
  % ID per gram brain: 0.10 ± 0.00 % ID per gram
  % ID per gram fat: 0.46 ± 0.19 % ID per gram
  % ID per gram heart: 0.68 ± 0.12 % ID per gram
  % ID per gram kidney: 2.57 ± 0.78 % ID per gram
  % ID per gram liver: 2.48 ± 0.52 % ID per gram
  % ID per gram lung: 1.34 ± 0.23 % ID per gram
  % ID per gram muscle: 1.67 ± 0.14 % ID per gram
  % ID per gram tumor: 0.92 ± 0.10 % ID per gram
1 hour
  ratio Tumor:blood: 1.10 ± 0.11
  ratio Tumor:fat: 2.77 ± 0.82
  ratio Tumor:heart: 1.86 ± 0.64
  ratio Tumor:lung: 0.79 ± 0.30
  ratio Tumor:muscle: 1.84 ± 0.25
  % ID per gram blood: 0.45 ± 0.04 % ID per gram
  % ID per gram brain: 0.03 ± 0.00 % ID per gram
  % ID per gram fat: 0.20 ± 0.08 % ID per gram
  % ID per gram heart: 0.29 ± 0.10 % ID per gram
  % ID per gram kidney: 1.34 ± 0.19 % ID per gram
  % ID per gram liver: 1.19 ± 0.17 % ID per gram
  % ID per gram lung: 0.70 ± 0.26 % ID per gram
  % ID per gram muscle: 0.26 ± 0.07 % ID per gram
  % ID per gram tumor: 0.50 ± 0.09 % ID per gram

## COc1cc2c(cc1OC)CN(CCNC(=O)c1cc(C)ccc1O[11CH3])CC2 [[^11C]9]
5 min
  % ID per gram blood: 5.89 ± 0.29 % ID per gram
  % ID per gram brain: 1.63 ± 0.30 % ID per gram
  % ID per gram fat: 3.07 ± 0.40 % ID per gram
  % ID per gram heart: 2.89 ± 0.36 % ID per gram
  % ID per gram kidney: 44.07 ± 1.67 % ID per gram
  % ID per gram liver: 18.49 ± 2.87 % ID per gram
  % ID per gram lung: 5.69 ± 0.70 % ID per gram
  % ID per gram muscle: 1.75 ± 0.21 % ID per gram
  % ID per gram tumor: 3.10 ± 0.25 % ID per gram
30 min
  % ID per gram blood: 2.62 ± 0.22 % ID per gram
  % ID per gram brain: 0.11 ± 0.01 % ID per gram
  % ID per gram fat: 0.38 ± 0.12 % ID per gram
  % ID per gram heart: 0.76 ± 0.06 % ID per gram
  % ID per gram kidney: 2.77 ± 0.42 % ID per gram
  % ID per gram liver: 3.87 ± 0.67 % ID per gram
  % ID per gram lung: 1.42 ± 0.15 % ID per gram
  % ID per gram muscle: 0.56 ± 0.19 % ID per gram
  % ID per gram tumor: 1.08 ± 0.08 % ID per gram
1 hour
  % ID per gram blood: 1.98 ± 0.35 % ID per gram
  % ID per gram brain: 0.10 ± 0.04 % ID per gram
  % ID per gram fat: 0.26 ± 0.09 % ID per gram
  % ID per gram heart: 0.76 ± 0.46 % ID per gram
  % ID per gram kidney: 1.01 ± 0.12 % ID per gram
  % ID per gram liver: 1.70 ± 0.23 % ID per gram
  % ID per gram lung: 1.39 ± 0.67 % ID per gram
  % ID per gram muscle: 0.41 ± 0.22 % ID per gram
  % ID per gram tumor: 0.85 ± 0.14 % ID per gram
